Source: patent US8158656B2, “2-indolinone derivatives as multi-target protein kinase inhibitors and histone deacetylase inhibitors” (Shenzhen Chipscreen Biosciences Ltd., priority 2008, dated 2012)

Experiments:
c-Kit = target: T1, c-Kit (Homo sapiens, UniProt P10721); assay: c-KIT kinase ELISA bioassay; type: biochemical; settings: ELISA kinase assay, 20 μM ATP
T1 construct: purchased Cell Signaling
Protocol: This assay is used to measure in vitro kinase activity of c-KIT in an ELISA assay.
• 1. Streptavidin coated, 96-well, white plate • 2. Phospho-Tyrosine Monoclonal Antibody (P-Tyr-100) (Cell Signaling) • 3. HRP-labeled anti-mouse IgG (Upstate) • 4. HTScan™ Tyrosine Kinase Buffer (4×) • 5. DTT (1000×. 1.25 M) • 6. ATP (10 mM) • 7. KDR (Tyr996) Biotinylated Peptide Substrate (Cell Signaling) • 8. c-KIT Kinase (recombinant, human) (Cell Signaling) • 9. Wash Buffer: 1× PBS, 0.05% Tween-20 (PBS/T) • 10. Bovine Serum Albumin (BSA) • 11. Stop Buffer: 50 mM EDTA pH 8 • 12. Enhanced chemiluminescence (ECL) (Amersham) Procedure for performing the assay in 96-well plate: • 1. Add 10 μl 10 mM ATP to 1.25 ml 6 μM substrate peptide. Dilute the mixture with dH20 to 2.5 ml to make 2× ATP/substrate cocktail ([ATP]=40 μM, [substrate]=3 μm). • 2. Immediately transfer enzyme from −80° C. to ice. Allow enzyme to thaw on ice. • 3. Microcentrifuge briefly at 4° C. to bring liquid to the bottom of the vial. Return immediately to ice. • 4. Add 10 μl of DTT (1.25 M) to 2.5 ml of 4× HTScan™ Tyrosine Kinase Buffer (240 mM HEPES pH 7.5, 20 mM MgCl2, 20 mM MnCl2, 12 μM Na3VO4) to make DTT/Kinase buffer. • 5. Transfer 1.25 ml of DTT/Kinase buffer to enzyme tube to make 4× reaction cocktail ([enzyme]=4 ng/μL in 4× reaction cocktail). • 6. Incubate 12.5 μl of the 4× reaction cocktail with 12.5 μl/well of prediluted compound of interest (usually around 10 μM) for 5 minutes at room temperature. • 7. Add 25 μl of 2× ATP/substrate cocktail to 25 μl/well preincubated reaction cocktail/compound. Final Assay Conditions for a 50 μl Reaction: • 60 mM HEPES pH 7.5 • 5 mM MgCl2 • 5 mM MnCl2 • 3 μM Na3VO4 • 1.25 mM DTT • 20 μM ATP • 1.5 μM peptide • 100 ng c-KIT Kinase • 8. Incubate reaction plate at room temperature for 30 minutes. • 9. Add 50 μl/well Stop Buffer (50 mM EDTA, pH 8) to stop the reaction. • 10. Transfer 25 μl of each reaction and 75 μl dH2O/well to a 96-well streptavidincoated plate and incubate at room temperature for 60 minutes. • 11. Wash three times with 200 μl/well PBS/T • 12. Dilute primary antibody, Phospho-Tyrosine Monoclonal Antibody (P-Tyr-100), 1:1000 in PBS/T with 1% BSA. Add 100 μl/well of primary antibody. • 13. Incubate at room temperature for 60 minutes. • 14. Wash three times with 200 μl/well PBS/T • 15. Dilute HRP labeled anti-mouse IgG 1:500 in PBS/T with 1% BSA. Add 100 μl/well diluted antibody. • 16. Incubate at room temperature for 30 minutes. • 17. Wash five times with 200 μl/well PBS/T. • 18. Add 100 μl/well ECL Solution. • 19. Detect luminescence with appropriate Plate Reader. Flt3 Bioassay

PDGFRβ NIH-3T3 cells = assay: PDGF ligand-dependent cell proliferation; type: cell-based; settings: Mus musculus, NIH3T3; NIH-3T3 expressing human PDGFRβ, PDGF BB 50 ng/ml, 72 hours, MTS
Protocol: Measurement of in vivo inhibition on receptor ligand-dependent cell proliferation: PDGF dependent cell proliferation:
NIH-3T3 mouse fibroblasts cell line engineered to stably express human PDGFRβ was constructed and used to evaluate PDGF dependent cell proliferation. PDGFRβ NIH-3T3 cells were plated into 96-well plates at 5,000 per well and incubated with serum-free medium for 24 hours. Compounds and PDGF BB (50 ng/ml) were added and incubated for 72 hours in serum-free medium. The effects on proliferation were determined by addition of MTS reagent (Promega) according to the instruction, incubation for 2 hours at 37° C. in CO2 incubator, and record the absorbance at 490 nm using an ELISA plate reader.

total HDAC enzyme = assay: Total HDAC enzyme activity, HDAC Fluorimetric Assay (HeLa extract); type: biochemical, human
Protocol: Measurement of in vitro inhibition of total HDAC enzyme activity:
The in vitro inhibition of total HDAC enzyme was determined by HDAC Fluorimetric Assay/Drug Discovery Kit (BIOMOL) according to manufacture's instruction. • 1. Add Assay buffer, diluted trichostatin A or test inhibitor to appropriate wells of the microtiter plate. Following table lists examples of various assay types and the additions required for each test.
• 2. Add diluted HeLa extract or other HDAC sample to all wells except those that are to be “No Enzyme Controls” (Blank). • 3. Allow diluted Fluor de Lys™ Substrate and the samples in the microtiter plate to equilibrate to assay temperature (25° C.). • 4. Initiate HDAC reactions by adding diluted substrate (25 μl) to each well and mixing thoroughly. • 5. Allow HDAC reactions to proceed for desired length of time and then stop them by addition of Fluor de Lys™ Developer (50 μl). Incubate plate at room temperature (25° C.) for 10-15 min. • 6. Read samples in a microtiter-plate reading fluorimeter capable of excitation at a wavelength in the range 350-380 nm and detection of emitted light in the range 440-460 nm. Measurement of in vivo inhibition of HDAC subtype activity: […]

Raji = assay: Tumor cell proliferation (MTS), Raji; type: cell-based; settings: Homo sapiens, 72 hours
Protocol: (§1) Measurement of in vivo cell proliferation:
(§2) Tumor cells were trypsinized and plated into 96-well plates at 3,000 per well and incubated in complete medium with 10% FBS for 24 hours. Compounds were added over a final concentration range of 100 μmol/L to 100 nmol/L in 0.1% DMSO and incubated for 72 hours in complete medium. The effects on proliferation were determined by addition of MTS reagent (Promega) according to the instruction, incubation for 2 hours at 37° C. in CO2 incubator, and record the absorbance at 490 nm using an ELISA plate reader.

[1] = test system: Mo7e cells (SCF dependent); assay: c-Kit ligand (SCF) dependent cell proliferation; type: cell-based; settings: SCF 50 ng/ml, 72 hours, MTS
Protocol: SCF dependent cell proliferation:
Mo7e cells (SCF dependent) were plated into 96-well plates at 15000 per well and incubated in 1640 medium with 10% FBS and SCF (50 ng/ml) for 24 hours. Compounds were added and incubated for 72 hours at 37° C. in CO2 incubator. The effects on proliferation were determined by addition of MTS reagent (Promega) according to the instruction, incubation for 2 hours at 37° C. in CO2 incubator, and record the absorbance at 490 nm using an ELISA plate reader.

MCF7 = assay: Tumor cell proliferation (MTS), MCF7; type: cell-based; settings: Homo sapiens, MCF7, 72 hours
Protocol: as §1, §2

T1 sequence (P10721 26-976): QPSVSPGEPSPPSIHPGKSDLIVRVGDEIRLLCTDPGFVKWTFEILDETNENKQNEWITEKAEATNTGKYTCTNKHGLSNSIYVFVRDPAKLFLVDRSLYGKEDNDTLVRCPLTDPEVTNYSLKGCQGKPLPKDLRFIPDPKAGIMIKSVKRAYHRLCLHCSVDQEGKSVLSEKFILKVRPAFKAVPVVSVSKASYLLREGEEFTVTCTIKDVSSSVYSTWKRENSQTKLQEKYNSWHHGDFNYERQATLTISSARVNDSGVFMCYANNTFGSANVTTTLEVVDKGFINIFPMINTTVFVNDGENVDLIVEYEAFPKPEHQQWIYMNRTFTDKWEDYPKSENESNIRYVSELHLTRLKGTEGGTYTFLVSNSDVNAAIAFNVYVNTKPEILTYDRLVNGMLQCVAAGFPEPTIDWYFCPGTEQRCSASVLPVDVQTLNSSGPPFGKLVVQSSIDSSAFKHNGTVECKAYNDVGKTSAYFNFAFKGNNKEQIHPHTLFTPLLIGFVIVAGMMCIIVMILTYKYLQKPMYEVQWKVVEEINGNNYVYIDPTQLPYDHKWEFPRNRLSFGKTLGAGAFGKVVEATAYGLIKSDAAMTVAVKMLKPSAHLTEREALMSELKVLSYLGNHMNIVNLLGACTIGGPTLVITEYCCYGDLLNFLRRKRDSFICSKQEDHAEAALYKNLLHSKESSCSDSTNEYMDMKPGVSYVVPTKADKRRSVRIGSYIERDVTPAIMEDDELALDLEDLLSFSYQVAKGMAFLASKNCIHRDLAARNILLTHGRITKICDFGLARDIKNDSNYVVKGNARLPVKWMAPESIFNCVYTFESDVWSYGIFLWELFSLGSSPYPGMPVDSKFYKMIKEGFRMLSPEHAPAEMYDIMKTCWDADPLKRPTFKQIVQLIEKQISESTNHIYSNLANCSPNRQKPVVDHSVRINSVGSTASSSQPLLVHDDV

Cc1[nH]c(/C=C2\C(=O)Nc3ccc(F)cc32)c(C)c1C(=O)NCCCCNc1ccc(C(=O)Nc2ccc(F)cc2N)cn1 [Example 19, (Z)-N-(2-amino-4-fluorophenyl)-6-(4-(2-((5-fluoro-2-oxoindolin-3-ylidene)-methyl)-3,5-dimethyl-1H-pyrrole-4-carboxamido)butylamino)nicotinamide]
IC50 (c-Kit): 65 nM
GI50 (PDGFRβ NIH-3T3 cells): > 1000 nM
% inhibition of total HDAC enzyme activity at 30 μM (total HDAC enzyme): 7.30%
GI50 (Raji): > 60 µM
GI50 [1]: 42 nM
GI50 (MCF7): > 60 µM

Cc1[nH]c(/C=N/N=C2\C(=O)Nc3ccc(F)cc32)c(C)c1C(=O)NCCCCNc1ccc(C(=O)Nc2ccc(F)cc2N)cn1 [Example 20, N-(2-amino-4-fluorophenyl)-6-(4-(2-(((5-fluoro-2-oxoindolin-3-ylidene)-hydrazono)methyl)-3,5-dimethyl-1H-pyrrole-4-carboxamido)butylamino)nicotinamide]
IC50 (c-Kit): > 1000 nM
GI50 (PDGFRβ NIH-3T3 cells): > 1000 nM
% inhibition of total HDAC enzyme activity at 30 μM (total HDAC enzyme): 3.50%
GI50 (Raji): > 60 µM
GI50 [1]: > 1000 nM
GI50 (MCF7): > 60 µM
